The supplement of paper PMC10307832

How the values were obtained:
Assay in all cases: relative viability (nuclei count vs DMSO), 5 days (fraction); higher = more cells survive
[1] = compound: CCOC1=CC=CC=C1N=NC2=C(NN(C2=O)C3=NC(=CS3)C4=CC=CC=C4)C [BAM7] + CC(C)C[C@H](NC(=O)[C@H](Cc1ccccc1)NC(=O)c1cnccn1)B(O)O [Bortezomib] (partner 0.002 µM)
Summary of the method: (§1)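 After 5 days of treatment, lung cancer cells in 1536-well plates were fixed and stained in a single step (final 0.05% Triton X-100, 1% formaldehyde, 1 ug/ml Hoechst) and their nuclei counted on 4× images. Treatment had been applied by pin tool the day after seeding as one drug alone or as a fixed anchor-drug dose with five library-drug doses (not always all listed) in √10 steps. Relative viability is the nuclei count of treated wells divided by that of vehicle wells, and values are medians of duplicate plates.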

[2] = compound: CCn1c(-c2nonc2N)nc2c(C#CC(C)(C)O)ncc(OC[C@H]3CCCNC3)c21 + NC(=O)Nc1cc(-c2cccc(F)c2)sc1C(=O)N[C@H]1CCCNC1 [AZD7762] (partner 0.2 µM)
Summary of the method: as §1

[3] = compound: CCOC1=CC=CC=C1N=NC2=C(NN(C2=O)C3=NC(=CS3)C4=CC=CC=C4)C [BAM7] + O=C(CCCCCCC(=O)Nc1ccccc1)NO [Vorinostat] (partner 1 µM)
Summary of the method: as §1

[4] = compound: CCn1c(-c2nonc2N)nc2c(C#CC(C)(C)O)ncc(OC[C@H]3CCCNC3)c21 + N=C(N)NC(=N)NCCc1ccccc1 [Phenformin] (partner 250 µM)
Summary of the method: as §1

Cell Line | relative viability ([1]; first compound 0.5 µM) | relative viability ([1]; first compound 5 µM) | relative viability ([1]; first compound 15.81 µM) | relative viability ([1]; first compound 50 µM) | relative viability ([2]; first compound 0.01 µM) | relative viability ([2]; first compound 0.03162 µM) | relative viability ([2]; first compound 0.1 µM) | relative viability ([2]; first compound 0.3162 µM) | relative viability ([2]; first compound 1 µM) | relative viability ([3]; first compound 0.5 µM) | relative viability ([3]; first compound 5 µM) | relative viability ([3]; first compound 15.81 µM) | relative viability ([3]; first compound 50 µM) | relative viability ([4]; first compound 0.01 µM) | relative viability ([4]; first compound 0.03162 µM) | relative viability ([4]; first compound 0.1 µM) | relative viability ([4]; first compound 0.3162 µM) | relative viability ([4]; first compound 1 µM)
LOU-NH91 | 0.476 | 0.508 | 0.546 | 0.486 | 0.78 | 0.693 | 0.755 | 0.689 | 0.68 | 0.899 | 0.936 | 0.917 | 0.903 | 0.683 | 0.566 | 0.686 | 0.607 | 0.635
NCI-H3122 | 1.06 | 1.13 | 1.04 | 1.05 | 1.01 | 1.03 | 0.997 | 0.975 | 1.04 | 0.985 | 0.887 | 1.02 | 1.14 | 0.401 | 0.364 | 0.447 | 0.389 | 0.374
NCI-H460 | 1.38 | 1.1 | 1.04 | 1.01 | 0.633 | 0.649 | 0.575 | 0.636 | 0.618 | 0.657 | 0.634 | 0.611 | 0.647 | 0.518 | 0.561 | 0.523 | 0.495 | 0.541
NCI-H650 | 0.884 | 0.948 | 0.878 | 0.885 | 0.948 | 1.05 | 0.998 | 0.878 | 1.08 | 0.541 | 0.531 | 0.518 | 0.492 | 0.435 | 0.414 | 0.429 | 0.415 | 0.444
